# Patent US10322132B2, “Prevention or treatment of uratic or gouty diseases” (SHANTON PHARMA CO., LTD., priority 2015, dated 2019)
# Legend:
# [1] = tested on: MSU-induced air sacs; assay: Air sacculitis (MSU-induced air sacs), leukocyte counts in lavage fluid; details: for Leukocyte count: Basophil / Leukocyte count: Eosinocyte / Leukocyte count: Lymphocyte / Leukocyte count: Monocyte / Leukocyte count: Neutrophil / Total cell count: lavage fluid 4 h after MSU, mean ± SEM, n = 8;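 as to all read-outs here: male Wistar rats with dorsal air sacs, dosed 1 h before injecting MSU crystal suspension, compared with saline-injected blank and vehicle-treated model groups, cytological analysis of lavage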
# Procedure: (§1) The sterile MSU crystals were added to 5 mL of sterilized saline before injected into air sacs.
# (§2) Male Wistar rats were raised for one week and then randomly divided into 6 groups. Animals were anesthetized and then injected with 24 mL of sterile air in their backs. The animals received the second injection of air 4 days later. On day 7, the rats in the blank group and model group were intragastrically administered with the solvent at a dose of 10 mL/kg; the rats in the dexamethasone group were administered by intraperitoneal injection with dexamethasone at a dose of 5 mg/kg; the rats in the colchicine group were intragastrically administered with colchicine at a dose of 5 mg/kg. […] One hour after administration, the rats in the blank group were injected with 5 mL of saline into the air sacs at the back, and the rats from other groups were injected with 5 mL of MSU crystal suspension (1 mg/mL) into the air sacs at the back. Four hours later, the lavage fluid in the air sacs was taken, and a portion of the lavage fluid was used for cytological analysis. The remaining was centrifuged at 8000 rpm for 15 min, and the supernatant was stored at −80° C. for the detection of cytokines IL-1β, IL-6, KC and TNFα. The test results were shown as mean±SEM and statistically analyzed by t-test.
# [2] = target: T1, human urate transporter 1 (hURAT1) (Homo sapiens, UniProt Q96S37); assay: Uptake of 14C-labeled uric acid in hURAT1 transfected cells; assay type: cell-based; details: 14C uric acid uptake, hURAT1-transfected HEK-293T cells, 5 min at 37° C.; read-out: IC50 (μM), inhibition of hURAT1 activity
# T1 construct: expressed in transfected cells; host or cells: HEK-293T
# T1 sequence (Q96S37 1-553): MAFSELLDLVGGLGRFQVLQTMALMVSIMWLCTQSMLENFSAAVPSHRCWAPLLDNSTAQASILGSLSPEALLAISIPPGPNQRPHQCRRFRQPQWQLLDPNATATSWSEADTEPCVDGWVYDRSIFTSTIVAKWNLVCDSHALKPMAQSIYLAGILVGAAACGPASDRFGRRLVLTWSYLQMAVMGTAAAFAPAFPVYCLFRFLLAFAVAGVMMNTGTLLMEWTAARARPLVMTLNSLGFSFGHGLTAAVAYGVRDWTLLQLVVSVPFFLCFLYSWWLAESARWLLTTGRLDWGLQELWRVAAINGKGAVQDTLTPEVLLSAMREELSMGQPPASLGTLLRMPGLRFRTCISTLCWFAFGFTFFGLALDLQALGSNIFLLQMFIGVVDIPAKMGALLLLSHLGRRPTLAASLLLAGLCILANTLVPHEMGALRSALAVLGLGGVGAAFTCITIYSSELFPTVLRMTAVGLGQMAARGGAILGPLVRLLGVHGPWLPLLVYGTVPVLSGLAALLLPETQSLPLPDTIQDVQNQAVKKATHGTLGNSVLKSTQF
# Procedure: The compounds were prepared into the stock solutions (5 mM) with dimethyl sulfoxide (DMSO). This experiment involved 8 concentrations in total. The final concentrations were 5000 nM, 1250 nM, 312.5 nM, 78.1 nM, 19.5 nM, 4.9 nM, 1.2 nM and 0.3 nM, respectively.
# Preparation of buffers: chlorine-free HBSS buffer (125 mM sodium gluconate, 4.8 mM potassium gluconate, 1.3 mM calcium gluconate, 1.2 mM KH2PO4, 1.2 mM MgSO4, 5.6 mM glucose, 25 mM 4-hydroxyethylpiperazine ethanesulfonic acid (HEPES) (pH 7.4)); lysis buffer (100 mM NaOH)
# Transfected cells stably expressing human urate transporter 1 (hURAT1) were obtained by: placing human embryonic kidney cells (HEK-293T) in a cell culture plate containing complete medium, incubating the cells for 24 h at 37° C. in 5% CO2, rinsing the cells with phosphate buffered saline (PBS) followed by trypsin digestion to prepare a suspension containing single cells; placing 8×10^6 cells a cell culture plate, adding dropwise TransIT-293 Reagent:DNA complexes (1.5 ml of Opti-MEM I Reduced-Serum Medium, 15 g of plasmid DNA, and 45 μL of TransIT-293 Reagent were mixed uniformly and then incubated at room temperature for 30 min) to different areas of the cell culture plate, gently shaking the cell culture plate to homogeneously distribute the TransIT-293 Reagent:DNA complexes, and incubating the cells for 48 h at 37° C. in 5% CO2.
# Uptake of ^14C-labeled uric acid in hURAT1 transfected cells: (1) hURAT1-transfected cells were placed in a Poly-D-lysine 96-well microplate at a cell density of 6×10^4/well, and left still overnight at 37° C. in 5% CO2; (2) after the cells were placed in the Poly-D-lysine 96-well microplate for 12 h, the cells were washed for 3 times with 200 μl of pre-heated chlorine-free HBSS buffer per well, and the washing solution in the microplate was removed; (3) 50 μl of uric acid-containing [8-14C] […]
# [3] = tested on: IL-1β, IL-6, KC and TNFα; assay: Air sacculitis (MSU-induced air sacs), cytokines in lavage fluid; details: for IL-1β / KC / TNF-α: lavage fluid supernatant, mean, n = 8
# Procedure: as §1, §2
# [4] = Pharmacokinetics experiment in cynomolgus monkeys, intravenous; assay type: in vivo, cynomolgus monkeys (Macaca fascicularis); details: 5 mg/kg, Mean ± SD, n = 3
# Procedure: Three non-naïve cynomolgus monkeys were administered with test compounds A, B and D at a dose of 5 mg/kg by intravenous injection and with test compound C at a dose of 3 mg/kg by intravenous injection, with one compound being tested at a time. Blood was collected from the vein before administration and 1 h, 3 h, 6 h and 24 h after administration, and plasma was isolated. The plasma was analyzed by a 4000 Q Trap LC-MS/MS instrument. The concentrations of the test samples were output by Analyst 1.6.1 from AB Company. The parameters ( ) such as the mean, standard deviation, and coefficient of variation were calculated using Microsoft Excel, wherein the values directly output by Analyst 1.6.1 requires no calculation. PK parameters were calculated using Pharsight Phoenix 6.2 software (NCA model).
# [5] = tested on: TNF-α; assay: LPS-induced TNF-α release; assay type: in vivo, Male BALB/C mice
# Procedure: The experiment was conducted by reference to Pascale Gaillard, Isabelle Jeanclaude-Etter, etc. Design and Synthesis of the First Generation of Novel Potent, Selective, and in Vivo Active (Benzothiazol-2-yl)acetonitrile
# BALB/C mice were raised in the SPF-grade animal room for 1 week, and were then randomly divided into the corresponding model group and the administration groups according to the body weight. The […] were administered with the solvent or the test samples by subcutaneous injection at a dose of 10 mg/kg. The rats were administered with LPS by intraperitoneal injection at a dose of 15 mg/kg 30 min after the administration of the solvent or the test samples. The mice were anesthetized with sodium pentobarbital (45 mg/kg by intraperitoneal injection) 1 h after LPS administration. The blood was collected by cardiac puncture, and the content of TNF-α (tumor necrosis factor) in plasma was measured with a Mouse TNF-α Elisa Ready-set-go kit.
structure (smiles),measurement,setting,value
"CCCCCn1c(=O)[nH]c(=O)c2[nH]c(Cl)nc21 [Compound A, 8-chloro-3-pentyl-3,7-dihydro-1H-purine-2,6-dione]",Leukocyte count: Basophil,[1]; 30 mg/kg intragastric,0 ± 0 *10^4/air sacs
same,Leukocyte count: Eosinocyte,[1]; 30 mg/kg intragastric,5.8 ± 1.2 *10^4/air sacs
same,Leukocyte count: Lymphocyte,[1]; 30 mg/kg intragastric,8.1 ± 1.2 *10^4/air sacs
same,Leukocyte count: Monocyte,[1]; 30 mg/kg intragastric,174.2 ± 35.4 *10^4/air sacs
same,Leukocyte count: Neutrophil,[1]; 30 mg/kg intragastric,18.6 ± 6.4^$ *10^4/air sacs
same,Total cell count,[1]; 30 mg/kg intragastric,206.8 ± 42.9^$ *10^4/air sacs
same,Leukocyte count: Basophil,[1]; 100 mg/kg intragastric,0 ± 0 *10^4/air sacs
same,Leukocyte count: Eosinocyte,[1]; 100 mg/kg intragastric,4.6 ± 1.4 *10^4/air sacs
same,Leukocyte count: Lymphocyte,[1]; 100 mg/kg intragastric,8.0 ± 1.9 *10^4/air sacs
same,Leukocyte count: Monocyte,[1]; 100 mg/kg intragastric,151.4 ± 24.1 *10^4/air sacs
same,Leukocyte count: Neutrophil,[1]; 100 mg/kg intragastric,12.2 ± 3.4^$ *10^4/air sacs
same,Total cell count,[1]; 100 mg/kg intragastric,176.2 ± 29.6^$$$ *10^4/air sacs
same,effect on increase of the total cell count and neutrophil count in the lavage fluid caused by MSU (in words),[1]; compound A at the oral doses of 30 mg/kg and 100 mg/kg,significantly inhibit
same,IC50,[2],2.52 µM
same,IL-1β,[3]; 30 mg/kg intragastric,79.2 pg/mL
same,KC,[3]; 30 mg/kg intragastric,8742.1 pg/mL
same,TNF-α,[3]; 30 mg/kg intragastric,29.7 pg/mL
same,IL-1β,[3]; 100 mg/kg intragastric,88.6 pg/mL
same,KC,[3]; 100 mg/kg intragastric,5757.4 pg/mL
same,TNF-α,[3]; 100 mg/kg intragastric,18.7 pg/mL
same,"effect on increase of IL-6, KC and TNFα (in words)",[3]; oral dose of 100 mg/kg,significantly inhibit
same,t1/2z,[4],14.55 ± 6.69 h
"CCCCCn1c(=O)n(C)c(=O)c2[nH]c(Cl)nc21 [Compound D, 8-chloro-1-methyl-3-pentyl-3,7-dihydro-1H-purine-2,6-dione]",IC50,[2],0.87 µM
same,inhibition (%),"[5]; TNF-α in plasma vs model group, 10 mg/kg subcutaneous",29.6%
same,effect on content of TNF-α in the plasma of the test mice (in words),[5]; compared with the model group,significantly reduce
same,Content of TNF-α,"[5]; plasma, 10 mg/kg subcutaneous 30 min before LPS 15 mg/kg i.p., 1 h after LPS",1124 pg/mL
same,t1/2z,[4],5.90 ± 0.42 h
